Results reported in PMC10672842, “Anti-Trypanosoma cruzi Activity, Mutagenicity, Hepatocytotoxicity and Nitroreductase Enzyme Evaluation of 3-Nitrotriazole, 2-Nitroimidazole and Triazole Derivatives” (Molecules, 2023).
Read-outs that look alike come from different tables or passages of the source.

Key:
S. typhimurium TA98 = experiment: Salmonella reverse mutation assay (Ames test, preincubation), TA98
Procedure: (§1) The compounds were tested in a reverse mutation assay preincubation protocol in the absence and presence of metabolic activation following standard protocols previously proposed by Maron and Ames. The histidine-dependent (his^−) strains TA98 and TA100 of Salmonella typhimurium were inoculated in 10 mL of Oxoid nutrient broth No. 2 containing 25 µg/mL ampicillin and incubated overnight (15–18 h) at 37 ± 1 °C on an orbital shaker (CT-712, Cientec, Belo Horizonte, MG, Brazil) at 150 rpm, obtaining a concentration of 1–2 × 10^9 cells/mL, confirmed by titration in nutrient agar plates. Briefly, 100 µL of stationary growth cultures of each strain were preincubated for 20 min on an orbital shaker (150 rpm) at 37 ± 1 °C, with 500 µL of 0.2 M phosphate buffer pH 7.4, or 500 µL of S9 mix 4% (Molecular Toxicology, Baltimore, MD, USA), and 100 µL of compound dilutions (0–5000 µM) or controls. DMSO 1% was used as a negative control. […] After incubation, 2 mL of top agar (0.7% agar, 0.5% NaCl, 0.05 mM L-histidine and D-biotin) at 45 ± 3 °C was added and gently mixed. The final mixture was poured on glucose minimal agar plates (1.5% agar, 10 g/L MgSO4·7H2O; 100 g/L of C6H8O7·H2O; 500 g/L K2HPO4; 175 g/L Na(NH4)HPO4·4H2O, 2% glucose) and incubated for 72 h at 37 ± 1 °C. The results were expressed as the mean of revertant colonies (His^+) per plate, standard deviation (SD) and mutagenicity induction fold (IF), calculated as the ratio between the number of colonies in the test group and the number of colonies in the negative control group. Mutagenic potency was calculated as the slope of the linear portion of the concentration–response function and expressed as revertants/µM. All assays were performed in triplicate and repeated at least two times. Statistical analyses were carried out in GraphPad Prism software (version 5.00, GraphPad Software, Boston, MA, USA).

S. typhimurium TA100 = conditions: for Mutagenicity in the Ames test (verdict): TA100, absence or presence of metabolic activation
Procedure: as §1

[1] = tested on: T. cruzi nitroreductase enzyme (TcNTR); experiment: Kinetic assay with Trypanosoma cruzi nitroreductase enzyme (NADH oxidation); assay type: biochemical; conditions: for Kobs Deriv./Kobs BZN 25 µM: 25 µM derivative; for Kobs Deriv./Kobs BZN 25 µM / Kobs Deriv./Kobs BZN 50 µM: ratio of mean Kobs to BZN; for Kobs Deriv./Kobs BZN 50 µM: 50 µM derivative
Procedure: To determine a potential mechanism of action, nitroazole derivatives 5, 6, 8 and 9 were evaluated as substrates of the T. cruzi nitroreductase enzyme (TcNTR) and compared to BZN, the reference prodrug (Table 2). The enzymatic activity was measured by monitoring the oxidation of NADH, the first substrate of the enzyme, via spectrophotometric assays. […] At a concentration of 25 µM, derivatives 5 and 8 were metabolized at rates 2.3 and 2.6 times higher than that of BZN, respectively. At 50 µM, the compounds presented metabolism rates 1.6 and 3.0 times higher than that of BZN, respectively.
The protocols for expressing, purifying and conducting kinetic analysis with the recombinant TcNTR enzyme were adapted from the methods originally developed by Shane Wilkinson, with certain modifications.
For the kinetics assays, it was prepared a 200 μL solution which included 50 mM Tris-Base at pH 7.5, with a constant concentration of both NADH (50 μM) and the substances 5, 6, 8, 9 or BZN. Specifically, two distinct fixed concentrations (25 and 50 μM) of the substances 5, 6, 8, 9 or BZN were tested. These prepared mixtures were then incubated for 5 min at room temperature. Subsequently, the reaction was initiated by adding NTR to achieve a final concentration of 10 μg/mL. The reaction rates were monitored using a Hitachi U-2900 spectrophotometer, measuring the consumption of the primary substrate, NADH (λ = 340 nm; ε = 6.220 M^−1 cm^−1), over a 2-min interval. The resulting data curves were analyzed through linear regression using OriginPro 2016 software. To evaluate the reaction rate (Kobs) obtained from the 25 and 50 μM concentrations of each substrate, comparisons were made with the reference values for BZN. Measurement errors were calculated using the formula: Error = Z × σ/√n, where ‘Z’ denotes the critical value, ‘σ’ represents the standard deviation and ‘n’ is the number of test measurements, which were performed at least in triplicate.

## O=[N+]([O-])c1ncn(CC(O)c2ccc(F)cc2F)n1 (stereo not drawn) [Compound 8, 1-(2,4-Difluorophenyl)-2-(3-nitro-1H-1,2,4-triazol-1-yl)ethanol]
S. typhimurium TA98; TA98, +S9, 0.5 µM
  IF (induction factor): 1.0
  revertant His+ colonies, mean ± SD: 24 ± 2
S. typhimurium TA98; TA98, +S9, 5 µM
  IF (induction factor): 1.0
  revertant His+ colonies, mean ± SD: 24 ± 7
S. typhimurium TA98; TA98, +S9, 50 µM
  IF (induction factor): 1.0
  revertant His+ colonies, mean ± SD: 23 ± 3
S. typhimurium TA98; TA98, +S9, 500 µM
  IF (induction factor): 1.0
  revertant His+ colonies, mean ± SD: 24 ± 5
S. typhimurium TA98; TA98, +S9, 5000 µM
  IF (induction factor): 1.1
  revertant His+ colonies, mean ± SD: 26 ± 1
S. typhimurium TA98; TA98, absence or presence of metabolic activation
  Mutagenicity in the Ames test (verdict): not mutagenic
S. typhimurium TA98; TA98, −S9, 0.5 µM
  IF (induction factor): 0.9
  revertant His+ colonies, mean ± SD: 23 ± 4
S. typhimurium TA98; TA98, −S9, 5 µM
  IF (induction factor): 0.9
  revertant His+ colonies, mean ± SD: 23 ± 1
S. typhimurium TA98; TA98, −S9, 50 µM
  IF (induction factor): 1.1
  revertant His+ colonies, mean ± SD: 30 ± 3
S. typhimurium TA98; TA98, −S9, 500 µM
  revertant His+ colonies, mean ± SD: Cytotoxic
S. typhimurium TA100; TA100, +S9, 0.5 µM
  IF (induction factor): 1.2
  revertant His+ colonies, mean ± SD: 129 ± 21
S. typhimurium TA100; TA100, +S9, 5 µM
  IF (induction factor): 1.2
  revertant His+ colonies, mean ± SD: 128 ± 6
S. typhimurium TA100; TA100, +S9, 50 µM
  IF (induction factor): 1.4
  revertant His+ colonies, mean ± SD: 150 ± 14
S. typhimurium TA100; TA100, +S9, 500 µM
  IF (induction factor): 1.4
  revertant His+ colonies, mean ± SD: 145 ± 8
S. typhimurium TA100; TA100, +S9, 5000 µM
  IF (induction factor): 1.7
  revertant His+ colonies, mean ± SD: 183 ± 9
S. typhimurium TA100
  Mutagenicity in the Ames test (verdict): not mutagenic
S. typhimurium TA100; TA100, −S9, 0.5 µM
  IF (induction factor): 1.1
  revertant His+ colonies, mean ± SD: 77 ± 5
S. typhimurium TA100; TA100, −S9, 5 µM
  IF (induction factor): 1.1
  revertant His+ colonies, mean ± SD: 77 ± 15
S. typhimurium TA100; TA100, −S9, 50 µM
  IF (induction factor): 1.1
  revertant His+ colonies, mean ± SD: 77 ± 13
S. typhimurium TA100; TA100, −S9, 500 µM
  IF (induction factor): 1.3
  revertant His+ colonies, mean ± SD: 91 ± 8
S. typhimurium TA100; TA100, −S9, 5000 µM
  IF (induction factor): 1.5
  revertant His+ colonies, mean ± SD: 108 ± 10
[1]; 25 µM
  consumption rate by TcNTR, times higher than that of 9: 3.4
[1]
  Kobs Deriv./Kobs BZN 25 µM: 2.6
  Kobs Deriv./Kobs BZN 50 µM: 3.0
[1]; 50 µM
  consumption rate by TcNTR, times higher than that of 5: 1.8

## O=[N+]([O-])c1nccn1CC(O)c1ccc(F)cc1F (stereo not drawn) [Compound 9, 1-(2,4-Difluorophenyl)-2-(2-nitro-1H-imidazol-1-yl)ethanol]
S. typhimurium TA98; TA98, +S9, 0.5 µM
  IF (induction factor): 0.8
  revertant His+ colonies, mean ± SD: 18 ± 2
S. typhimurium TA98; TA98, +S9, 5 µM
  IF (induction factor): 0.8
  revertant His+ colonies, mean ± SD: 18 ± 2
S. typhimurium TA98; TA98, +S9, 50 µM
  IF (induction factor): 0.9
  revertant His+ colonies, mean ± SD: 22 ± 8
S. typhimurium TA98; TA98, +S9, 500 µM
  IF (induction factor): 1.0
  revertant His+ colonies, mean ± SD: 24 ± 5
S. typhimurium TA98; TA98, +S9, 5000 µM
  IF (induction factor): 1.2
  revertant His+ colonies, mean ± SD: 28 ± 2
S. typhimurium TA98; TA98, −S9, 0.5 µM
  IF (induction factor): 0.7
  revertant His+ colonies, mean ± SD: 18 ± 6
S. typhimurium TA98; TA98, −S9, 5 µM
  IF (induction factor): 0.7
  revertant His+ colonies, mean ± SD: 18 ± 2
S. typhimurium TA98; TA98, −S9, 50 µM
  IF (induction factor): 1.1
  revertant His+ colonies, mean ± SD: 29 ± 3
S. typhimurium TA98; TA98, −S9, 500 µM
  IF (induction factor): 1.8
  revertant His+ colonies, mean ± SD: 49 ± 5
S. typhimurium TA98; TA98, −S9, 5000 µM
  IF (induction factor): 6.5
  revertant His+ colonies, mean ± SD: 173 ± 21
S. typhimurium TA100; TA100, +S9
  Mutagenic potency (slope of the linear portion of the concentration–response function): 292.1 revertants/µM
S. typhimurium TA100; TA100, +S9, 0.5 µM
  IF (induction factor): 1.5
  revertant His+ colonies, mean ± SD: 159 ± 7
S. typhimurium TA100; TA100, +S9, 5 µM
  IF (induction factor): 2.1
  revertant His+ colonies, mean ± SD: 218 ± 14
S. typhimurium TA100; TA100, +S9, 50 µM
  IF (induction factor): 2.2
  revertant His+ colonies, mean ± SD: 233 ± 48
S. typhimurium TA100; TA100, +S9, 500 µM
  IF (induction factor): 9.7
  revertant His+ colonies, mean ± SD: 1025 ± 16
S. typhimurium TA100; TA100, +S9, 5000 µM
  IF (induction factor): 11.5
  revertant His+ colonies, mean ± SD: 1216 ± 113
S. typhimurium TA100
  Mutagenicity in the Ames test (verdict): mutagenic
S. typhimurium TA100; TA100, −S9
  Mutagenic potency (slope of the linear portion of the concentration–response function): 250.3 revertants/µM
S. typhimurium TA100; TA100, −S9, 0.5 µM
  IF (induction factor): 1.0
  revertant His+ colonies, mean ± SD: 73 ± 5
S. typhimurium TA100; TA100, −S9, 5 µM
  IF (induction factor): 1.2
  revertant His+ colonies, mean ± SD: 88 ± 7
S. typhimurium TA100; TA100, −S9, 50 µM
  IF (induction factor): 2.3
  revertant His+ colonies, mean ± SD: 164 ± 16
S. typhimurium TA100; TA100, −S9, 500 µM
  IF (induction factor): 4.9
  revertant His+ colonies, mean ± SD: 347 ± 24
S. typhimurium TA100; TA100, −S9, 5000 µM
  IF (induction factor): 16.7
  revertant His+ colonies, mean ± SD: 1195 ± 160
S. typhimurium TA100; TA100, −S9 and +S9
  Mutagen classification according to Claxton et al.: highly inductive mutagen
[1]
  Kobs Deriv./Kobs BZN 25 µM: 0.8
  Kobs Deriv./Kobs BZN 50 µM: 1.2
[1]; 50 µM
  consumption rate by TcNTR, times higher than that of 6: 4.9
